Patent US20250221410A1, “SUBSTITUTED 2-C-AZINES AND SALTS THEREOF, AND USE THEREOF AS HERBICIDAL ACTIVE SUBSTANCES” (BAYER AKTIENGESELLSCHAFT, priority 2022, published 2025)

Legend:
Format in all cases: in vivo
[1] = test system: AMARE: Amaranthus retroflexus; experiment: Pre-emergence herbicide efficacy at 80 g/ha, AMARE; conditions: scored visually after about 3 weeks
Method in brief: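 Applied to the soil surface directly after sowing, before emergence, as an aqueous WP or EC preparation containing 0.5% additive. Percent efficacy was rated by eye about 3 weeks later in the greenhouse.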

[2] = test system: KCHSC: Kochia scoparia; experiment: Pre-emergence herbicide efficacy at 80 g/ha, KCHSC; conditions: scored visually after about 3 weeks
From the text: (§1) Seeds of monocotyledonous and dicotyledonous weed plants and crop plants were placed in plastic or organic planting pots and covered with soil. The compounds of the invention, formulated in the form of wettable powders (WP) or as emulsion concentrates (EC), were then applied to the surface of the covering soil as aqueous suspension or emulsion with addition of 0.5% additive at a water application rate equivalent to 600 l/ha. After the treatment, the pots were placed in a greenhouse and kept under good growth conditions for the test plants. After about 3 weeks, the efficacy of the preparations was scored visually in comparison with untreated controls as percentages. For example, 100% activity=the plants have died, 0% activity=like control plants. Tables D1 to D12 below show the effects of selected compounds of the general formula (I) according to Table 1 on various harmful plants and an application rate corresponding to 80 g/ha, which were obtained by the experimental procedure mentioned above.

[3] = test system: AMARE: Amaranthus retroflexus; experiment: Pre-emergence herbicide efficacy at 1280 g/ha, AMARE; conditions: visual scoring after about 3 weeks vs untreated controls
Method in brief: (§2)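 Efficacy is a visual percentage rating against untreated controls, taken about 3 weeks after soil-surface application to freshly sown, soil-covered seeds in sandy loam.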

[4] = test system: ECHCG: Echinochloa crus-galli; experiment: Pre-emergence herbicide efficacy at 1280 g/ha, ECHCG; conditions: visual scoring after about 3 weeks vs untreated controls
Method in brief: as §2

[5] = test system: ABUTH: Abutilon theophrasti; experiment: Pre-emergence herbicide efficacy at 1280 g/ha, ABUTH; conditions: visual scoring after about 3 weeks vs untreated controls
Method in brief: as §2

[6] = test system: SETVI: Setaria viridis; experiment: Pre-emergence herbicide efficacy at 1280 g/ha, SETVI; conditions: visual scoring vs untreated controls
Method in brief: as §2

[7] = test system: POAAN: Poa annua; experiment: Pre-emergence herbicide efficacy at 1280 g/ha, POAAN; conditions: visual scoring after about 3 weeks vs untreated controls
Method in brief: as §2

[8] = test system: LOLRI: Lolium rigidum; experiment: Post-emergence herbicidal efficacy at 1280 g/ha, LOLRI; conditions: visual rating about 3 weeks after treatment vs untreated controls
Description: (§3) Seeds of mono- and dicotyledonous weed plants were placed in plastic pots in sandy loam soil (doubly sown with in each case one species of mono- or dicotyledonous weed plants per pot), covered with soil and cultivated in a greenhouse under controlled growth conditions. 2 to 3 weeks after sowing, the test plants were treated at the one-leaf stage. The compounds of the invention, formulated in the form of wettable powders (WP) or as emulsion concentrates (EC), were applied to the green parts of the plants as aqueous suspension or emulsion with addition of 0.5% additive at a water application rate equivalent to 600 litres per hectare. After the test plants had been kept in the greenhouse under optimum growth conditions for about 3 weeks, the activity of the preparations was rated visually in comparison to untreated controls. For example, 100% activity=the plants have died, 0% activity=like control plants. Tables A1 to A12 below show the effects of selected compounds of the general formula (I) according to Table 1 on various harmful plants and at an application rate corresponding to 1280 g/ha, which were obtained by the trial procedure specified above.

[9] = test system: VERPE: Veronica persica; experiment: Post-emergence herbicidal efficacy at 1280 g/ha, VERPE; conditions: visual rating about 3 weeks after treatment vs untreated controls
Method in brief: (§4)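 Greenhouse pot test in sandy loam. Plants at the one-leaf stage, 2–3 weeks after sowing, were sprayed post-emergence with WP or EC formulations in water containing 0.5% additive, at 600 L/ha. Activity was scored visually about 3 weeks later against untreated controls (100% = dead, 0% = as control).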

[10] = test system: KCHSC: Kochia scoparia; experiment: Pre-emergence herbicide efficacy at 1280 g/ha, KCHSC; conditions: visual scoring after about 3 weeks vs untreated controls
Method in brief: as §2

[11] = test system: STEME: Stellaria media; experiment: Pre-emergence herbicide efficacy at 1280 g/ha, STEME; conditions: visual scoring vs untreated controls
Method in brief: as §2

[12] = test system: AMARE: Amaranthus retroflexus; experiment: Post-emergence herbicidal efficacy at 1280 g/ha, AMARE; conditions: rated visually after about 3 weeks vs untreated controls, 100% = plants have died, 0% = like control plants
Method in brief: as §4

[13] = test system: KCHSC: Kochia scoparia; experiment: Post-emergence herbicidal efficacy at 1280 g/ha, KCHSC; conditions: visual rating about 3 weeks after treatment vs untreated controls
Method in brief: as §4

[14] = test system: STEME: Stellaria media; experiment: Post-emergence herbicidal efficacy at 1280 g/ha, STEME; conditions: visual rating about 3 weeks after treatment vs untreated controls
Method in brief: as §4

[15] = test system: VERPE: Veronica persica; experiment: Pre-emergence herbicide efficacy at 1280 g/ha, VERPE; conditions: visual scoring vs untreated controls
Method in brief: as §2

[16] = test system: SETVI: Setaria viridis; experiment: Post-emergence herbicidal efficacy at 1280 g/ha, SETVI; conditions: visual rating about 3 weeks after treatment vs untreated controls
Method in brief: as §4

[17] = test system: DIGSA: Digitaria sanguinalis; experiment: Post-emergence herbicidal efficacy at 1280 g/ha, DIGSA; conditions: rated visually after about 3 weeks vs untreated controls, 100% = plants have died, 0% = like control plants
Method in brief: as §4

[18] = test system: POAAN: Poa annua; experiment: Post-emergence herbicidal efficacy at 1280 g/ha, POAAN; conditions: visual rating about 3 weeks after treatment vs untreated controls
Method in brief: as §4

[19] = test system: DIGSA: Digitaria sanguinalis; experiment: Pre-emergence herbicide efficacy at 1280 g/ha, DIGSA; conditions: visual scoring after about 3 weeks vs untreated controls
Method in brief: as §2

[20] = test system: ECHCG: Echinochloa crus-galli; experiment: Post-emergence herbicidal efficacy at 1280 g/ha, ECHCG; conditions: rated visually after about 3 weeks vs untreated controls, 100% = plants have died, 0% = like control plants
Method in brief: as §4

[21] = test system: ALOMY: Alopecurus myosuroides; experiment: Post-emergence herbicidal efficacy at 1280 g/ha, ALOMY; conditions: rated visually after about 3 weeks vs untreated controls, 100% = plants have died, 0% = like control plants
Description: as §3

[22] = test system: MATIN: Matricaria inodora; experiment: Pre-emergence herbicide efficacy at 1280 g/ha, MATIN; conditions: visual scoring after about 3 weeks vs untreated controls
Method in brief: as §2

[23] = test system: ABUTH: Abutilon theophrasti; experiment: Post-emergence herbicidal efficacy at 1280 g/ha, ABUTH; conditions: rated visually after about 3 weeks vs untreated controls, 100% = plants have died, 0% = like control plants
Method in brief: as §4

[24] = test system: AMARE: Amaranthus retroflexus; experiment: Post-emergence herbicidal efficacy at 80 g/ha, AMARE; conditions: visual rating about 3 weeks after treatment vs untreated controls
Method in brief: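 Greenhouse plants grown in sandy loam were sprayed at the one-leaf stage, 2 to 3 weeks after sowing, with WP or EC formulations in water containing 0.5% additive at 600 l/ha. Visual rating against untreated controls came about 3 weeks later (100% = dead, 0% = as control).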

[25] = test system: MATIN: Matricaria inodora; experiment: Post-emergence herbicidal efficacy at 1280 g/ha, MATIN; conditions: visual rating about 3 weeks after treatment vs untreated controls
Description: as §3

[26] = test system: VIOTR: Viola tricolor; experiment: Pre-emergence herbicide efficacy at 80 g/ha, VIOTR; conditions: scored visually after about 3 weeks
From the text: as §1

[27] = test system: POLCO; experiment: Pre-emergence herbicide efficacy at 80 g/ha, POLCO; conditions: Polygonum convolvulus, scored visually after about 3 weeks
From the text: as §1

[28] = test system: VIOTR: Viola tricolor; experiment: Post-emergence herbicidal efficacy at 80 g/ha, VIOTR; conditions: visual rating about 3 weeks after treatment vs untreated controls
Description: Seeds of monocotyledonous and dicotyledonous weeds and crop plants were placed in sandy loam in plastic or organic planting pots, covered with soil and cultivated in a greenhouse under controlled growth conditions. 2 to 3 weeks after sowing, the test plants were treated at the one-leaf stage. The compounds of the invention, formulated in the form of wettable powders (WP) or as emulsion concentrates (EC), were then sprayed onto the green parts of the plants as aqueous suspension or emulsion with addition of 0.5% additive at a water application rate of 600 l/ha (converted). After the test plants had been kept in the greenhouse under optimum growth conditions for about 3 weeks, the activity of the preparations was rated visually in comparison to untreated controls. For example, 100% activity=the plants have died, 0% activity=like control plants. Tables B1 to B10 below show the effects of selected compounds of the general formula (I) according to Table 1 on various harmful plants and an application rate corresponding to 80 g/ha, which were obtained by the experimental procedure mentioned above.

SMILES	Pre-emergence efficacy against AMARE in % [1] [%]	Pre-emergence efficacy against AMARE [3] [%]	Pre-emergence efficacy against ECHCG [4] [%]	Pre-emergence efficacy against ABUTH [5] [%]	Pre-emergence efficacy against SETVI in % [6] [%]	Pre-emergence efficacy against POAAN [7] [%]	Post-emergence efficacy against VERPE [9] [%]	Pre-emergence efficacy against KCHSC [10] [%]	Pre-emergence efficacy against STEME in % [11] [%]	Post-emergence efficacy at 1280 g/ha against AMARE in % [12] [%]	Post-emergence efficacy against KCHSC [13] [%]	Post-emergence efficacy against STEME [14] [%]	Pre-emergence efficacy against VERPE in % [15] [%]	Post-emergence efficacy against SETVI [16] [%]	Post-emergence efficacy at 1280 g/ha against DIGSA in % [17] [%]	Post-emergence efficacy against POAAN [18] [%]	Pre-emergence efficacy against DIGSA [19] [%]	Post-emergence efficacy at 1280 g/ha against ECHCG in % [20] [%]	Pre-emergence efficacy against MATIN [22] [%]	Post-emergence efficacy at 1280 g/ha against ABUTH in % [23] [%]	further results
Clc1cnc(Cc2ccccc2Oc2ncc(Cl)cn2)nc1 [Example 1-50]	90	–	–	–	–	–	–	–	–	–	–	–	–	–	–	–	–	–	–	–	Pre-emergence efficacy against KCHSC in % [2]: 90%
Fc1ccc(Oc2c(F)cccc2Cc2ncc(Cl)cn2)cc1 [Example 1-35, 5-Chloro-2-[3-fluoro-2-(4-fluorophenoxy)benzyl]pyrimidine]	–	100	90	90	90	90	100	100	100	100	100	100	100	90	90	90	90	100	90	100	Post-emergence efficacy against LOLRI [8]: 90%; Post-emergence efficacy at 1280 g/ha against ALOMY in % [21]: 90%
N#Cc1cccc(Cc2ncc(F)cn2)c1-n1cc(C(F)(F)F)cn1 [Example 1-131]	100	100	100	100	100	90	100	100	100	100	100	100	100	90	90	100	100	100	100	100	Post-emergence efficacy against AMARE [24]: 100%; Post-emergence efficacy against MATIN [25]: 90%; Pre-emergence efficacy against VIOTR in % [26]: 90%; Pre-emergence efficacy against POLCO in % [27]: 80%; Post-emergence efficacy against VIOTR [28]: 90%
